“And” between values parts separate entries of the source, which are not always exact repeats. Equal entries are not always repeated. Where two headings read alike, the source gives them in different places.
What was measured:
[1] = molecular target: T1, recombinant RfBGluc-1 β-glucosidase (Reticulitermes flavipes, UniProt D9ILU1); experiment: Activity of recombinant RfBGluc-1 towards synthetic nitrophenol substrates, kinetic microplate assay; assay type: biochemical; settings: percent activity rankings based on Vmax; pNP-βD-Glucopyranoside = 100
T1 sequence (D9ILU1 18-495): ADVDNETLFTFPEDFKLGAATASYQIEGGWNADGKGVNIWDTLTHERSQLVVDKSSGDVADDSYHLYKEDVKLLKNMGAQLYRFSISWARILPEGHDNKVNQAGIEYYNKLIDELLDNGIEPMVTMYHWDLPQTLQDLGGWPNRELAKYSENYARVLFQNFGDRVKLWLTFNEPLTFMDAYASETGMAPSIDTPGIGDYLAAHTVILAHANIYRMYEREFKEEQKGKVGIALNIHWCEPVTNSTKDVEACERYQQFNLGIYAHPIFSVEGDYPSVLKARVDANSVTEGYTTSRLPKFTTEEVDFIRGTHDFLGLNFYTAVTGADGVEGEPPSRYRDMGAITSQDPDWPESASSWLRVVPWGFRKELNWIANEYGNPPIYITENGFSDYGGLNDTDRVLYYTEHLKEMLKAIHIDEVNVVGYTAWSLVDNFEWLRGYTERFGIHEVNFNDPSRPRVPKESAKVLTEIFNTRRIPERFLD
Experimental: All initial characterization assays took place in 0.1 M sodium acetate buffer (pH 6) using 2 μL of recombinant enzyme preparation (=1.58 μg protein per assay) in a total reaction volume of 250 μL. Synthetic p-nitrophenol substrates (Table 1) were tested in direct kinetic assays using a microplate reader. Reactions were initiated by adding 248 μL assay buffer to 2 μL protein. Assays were read at 420 nm every 20 sec for 5 min to yield mean velocity data in mOD/min. Specific activity was determined with the p-nitrophenol extinction coefficient of 0.6605 mM^−1 cm^−1. All results were averaged from three independent replicates, each conducted in triplicate.

[2] = molecular target: RfLacA (Reticulitermes flavipes, UniProt D0E8H0); experiment: RfLacA substrate specificity and kinetic parameters
Sequence of RfLacA (D0E8H0 entry or part of it): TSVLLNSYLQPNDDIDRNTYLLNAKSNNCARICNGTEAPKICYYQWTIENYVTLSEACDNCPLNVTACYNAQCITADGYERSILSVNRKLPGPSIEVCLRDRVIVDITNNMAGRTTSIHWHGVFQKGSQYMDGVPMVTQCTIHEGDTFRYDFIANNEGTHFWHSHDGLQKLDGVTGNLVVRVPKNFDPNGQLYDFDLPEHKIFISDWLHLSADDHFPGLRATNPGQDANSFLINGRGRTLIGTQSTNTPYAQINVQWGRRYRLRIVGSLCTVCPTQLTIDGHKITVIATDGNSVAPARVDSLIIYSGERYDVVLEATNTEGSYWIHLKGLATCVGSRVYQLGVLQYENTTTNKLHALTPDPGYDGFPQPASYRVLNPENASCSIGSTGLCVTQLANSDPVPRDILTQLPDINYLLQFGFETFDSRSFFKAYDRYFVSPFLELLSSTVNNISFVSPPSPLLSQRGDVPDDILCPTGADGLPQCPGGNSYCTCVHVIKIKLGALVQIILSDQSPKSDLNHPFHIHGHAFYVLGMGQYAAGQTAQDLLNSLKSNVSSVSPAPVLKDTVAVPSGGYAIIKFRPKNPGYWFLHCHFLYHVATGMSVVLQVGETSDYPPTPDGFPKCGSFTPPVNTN

[3] = RfLacA, 1 mM substrate, hydroquinone = 100

Structure (SMILES)	Activity (%) [1] [%]	Specific Activity at 1 mM [S] ([2]; RfLacA, 1 mM substrate) [nmol·min/mg]	also measured
O=[N+]([O-])c1ccc(O[C@@H]2O[C@H](CO)[C@@H](O[C@@H]3O[C@H](CO)[C@@H](O[C@@H]4O[C@H](CO)[C@@H](O)[C@H](O)[C@H]4O)[C@H](O)[C@H]3O)[C@H](O)[C@H]2O)cc1 [pNP-βD-Cellotrioside, p-nitrophenyl-beta-D-cellotrioside]	98	–	–
COc1cc(/C=C/C(=O)O)cc(OC)c1O [Sinapinic Acid]	–	3.383	Relative Activity (%) [2]: 40.40%; Optimal pH ([2]; RfLacA, per substrate): 7.5
O=[N+]([O-])c1ccc(O[C@H]2O[C@H](CO)[C@H](O)[C@H](O)[C@H]2O)cc1 [pNP-αD-Galactopyranoside]	0	–	–
O=[N+]([O-])c1ccccc1O[C@@H]1O[C@H](CO)[C@@H](O)[C@H](O)[C@@H]1O [oNP-βD-Mannopyranoside]	0	–	–
O=[N+]([O-])c1ccc(O[C@@H]2OC[C@@H](O)[C@H](O)[C@H]2O)cc1 [pNP-βD-Xylopyranoside]	0	–	–
Oc1ccc(O)cc1 [Hydroquinone]	–	–	Optimal pH [2]: 7; Relative Activity (%) [2]: 100.00%; Specific Activity at 1 mM [S] [2]: 8.373 nmol·min/mg; Apparent Vmax ([2]; RfLacA, footnote: maximal specific activities in nmol/min/mg): 0.824 μm min^−1
O=[N+]([O-])c1ccc(O[C@@H]2O[C@H](CO)[C@@H](O[C@@H]3O[C@H](CO)[C@@H](O[C@@H]4O[C@H](CO)[C@@H](O[C@@H]5O[C@H](CO)[C@@H](O)[C@H](O)[C@H]5O)[C@H](O)[C@H]4O)[C@H](O)[C@H]3O)[C@H](O)[C@H]2O)cc1 [pNP-βD-Cellotetraoside, p-nitrophenyl-beta-D-cellotetraoside]	73	–	–
O=[N+]([O-])c1ccc(O[C@H]2OC[C@H](O)[C@H](O)[C@H]2O)cc1 [pNP-βL-Arabinopyranoside]	0	–	–
O=[N+]([O-])c1ccc(O[C@@H]2O[C@H](CO)[C@H](O)[C@H](O)[C@H]2O)cc1 [pNP-βD-Galactopyranoside]	0	–	–
CC(=O)NCCc1ccc(O)c(O)c1 [NADA]	–	0.760	Relative Activity (%) [2]: 9.08%
N[C@@H](Cc1ccc(O)c(O)c1)C(=O)O [L-DOPA]	–	0.676	Optimal pH ([2]; RfLacA, per substrate): 6.0 and 7.5; Relative Activity (%) [2, 3]: 8.07%
O=[N+]([O-])c1ccccc1O[C@@H]1OC[C@@H](O)[C@H](O)[C@H]1O [oNP-βD-Xylopyranoside]	38	–	–
NCCC(=O)NCCc1ccc(O)c(O)c1 [NBAD]	–	0.190	Relative Activity (%) [2, 3]: 2.27%
O=[N+]([O-])c1ccccc1O[C@@H]1O[C@H](CO)[C@@H](O)[C@H](O)[C@H]1O [oNP-βD-Glucopyranoside]	18	–	–
O=[N+]([O-])c1cccc(O[C@H]2O[C@H](CO)[C@H](O)[C@H](O)[C@H]2O)c1 [mNP-αD-Galactopyranoside]	0	–	–
O=C(O)[C@H]1O[C@@H](Oc2ccc([N+](=O)[O-])cc2)[C@H](O)[C@@H](O)[C@@H]1O [pNP-βD-Glucuronide]	0	–	–
COc1cccc(OC)c1O [2,6-DMP, 2,6-dimethoxyphenol]	–	2.146	Optimal pH ([2]; RfLacA, per substrate): 7.5; Relative Activity (%) [2, 3]: 25.63%
Oc1cccc(O)c1O [Pyrogallol]	–	1.482	Optimal pH ([2]; RfLacA, per substrate): 7; Relative Activity (%) [2, 3]: 17.70%
Oc1ccccc1O [Pyrocatechol]	–	2.315	Relative Activity (%) [2]: 27.65%; Optimal pH ([2]; RfLacA, per substrate): 7.5

From patent publication US8445240B2, “Termite enzymes and uses thereof for in vitro conversion of lignin-containing materials to fermentable products” (University of Florida Research Foundation, Inc., priority 2009, dated 2013)
